Measured values taken from publication PMC3769651 (Scientific Reports, 2013).

Target: vchNADK (Vibrio cholerae, UniProt Q9KTP8, K2E/N76T)

In the case of `NC(=O)c1ccc[n+]([C@@H]2O[C@H](COP(=O)(O)OP(=O)(O)OC[C@H]3O[C@@H](n4cnc5c(N)ncnc54)[C@H](OP(=O)(O)O)[C@@H]3O)[C@@H](O)[C@H]2O)c1` [NADP^+], the “% residual activity at 0.20 mM” value is reported as 39%.
